Holding throughout (format): physicochemical
Data set [1] can be described thus: Aerosolisation efficiency of combination DPI formulations FP/micronized SX 500/50, NGI via Rotahaler and Cyclohaler, incl. 1 month storage. Particulars: for % FPF under stressed storage conditions: 1 month at 25° C./75% RH; for FPF of FP compared with micronized sample: T=0, Cyclohaler; for FPF of FP compared with micronized sample / FPF of FP compared with other samples: 500/50 blend with micronized SX; for FPF of FP compared with other samples: T=0, Rotahaler. The method, then: The aerosolisation efficiency of samples 2, 3 and 4 of fluticasone propionate (FP) produced as described in Example 2 was assessed in combination dry powder inhaler (DPI) formulations containing micronized salmeterol xinafoate (SX) using a Rotahaler® unit dose DPI device (GSK, Ware, UK) and Cyclohaler® unit dose DPI device (TEVA Pharmaceuticals, Netherlands).
The aerosolization efficiency was evaluated in combination DPI formulations also containing micronized SX. Each combination formulation contained 0.16000 g FP (sample 2, 3 or 4), 0.02320 g SX and 3.8168 g lactose (ML001, DMV-Fonterra, Vehgel, Netherlands) and was prepared by geometric mixing. Following this, each blend was subsequently prepared using a Turbula T2F (Willy A Bachofen A G, Basel, Switzerland) at 46 rpm for 45 minutes. The blend strength of each combination formulation equated to 500 μg FP and 50 μg Salmeterol base. This matches the dose strength of Advair 500/50. A sample of Advair 500/50 was used as the micronized example. The aerolisation efficiency of four different formulations containing FP samples 2, 3, 4 or micronized FP was measured.
Following content uniformity testing, 12.5±0.5 mg of each blend was loaded into size 3 hydroxypropylmethyl cellulose capsules (HPMC, Shionogi Qualicaps S A, Basingstoke, UK). The capsules were stored at 44% RH for 24 h prior to in vitro performance testing.
(§1) Testing was performed using a Next Generation Impactor (NGI) with pre-separator, which was connected to a vacuum pump (GE Motors). Prior to testing, the pre-separator was filled with 15 ml of mobile phase and the cups of the NGI cups were coated with 1% v/v silicone oil in hexane to eliminate particle bounce.
For each experiment, two individual capsules of the same formulation were discharged into the NGI at 60 Lpm for 4 s via a Rotahaler (GSK, Ware, UK) and 90 Lpm for 2.8 s via a Cyclohaler (TEVA Pharmaceuticals, Netherlands) to ensure both devices were operated such that 4 kPa pressure drop was generated.
Additionally, blisters from a commercially available Advair 500/50 Diskus (GSK, USA) were emptied and 12.5 mg of formulation was transferred into size 3 HPMC capsules and discharged into a NGI at 60 Lpm for 4 s via a Rotahaler and at 90 Lpm for 2.8 s via a Cyclohaler.
(§2) Following aerosolization, the NGI apparatus was dismantled and the inhaler, capsules and each part of the NGI was washed down into known volumes of HPLC mobile phase. The mass of drug deposited on each part of the NGI was determined by HPLC. This protocol was repeated three times for each blend, following which, the fine particle dose (FPD) and fine particle fraction of the loaded dose (FPFLD) were determined. The FPD represented the mass of drug that was collected on stages 3-8 of the NGI.

A short description of data set [2]: Aerosolisation efficiency of 500/25 FP/SX combination DPI formulation, NGI via Cyclohaler. The note with it: 500/25 formulation. The method, then:
Following content uniformity testing, […] of the blend containing the FP sample 3 blend or Advair was loaded into size 3 hydroxypropylmethyl cellulose capsules (HPMC, Shionogi Qualicaps S A, Basingstoke, UK). The capsules were stored at 44% RH for 24 h prior to in vitro performance testing.
as §1
For each experiment, two individual capsules of the same formulation were discharged into the NGI at 90 Lpm for 2.8 s via a Cyclohaler (TEVA Pharmaceuticals, Netherlands) to ensure both devices were operated such that 4 kPa pressure drop was generated.
as §2

Data set [3] in a line: pMDI formulation, particle fraction distribution on NGI stages. Particulars: stage 5 cut-off 1.36 μm, listed as micronized material. How it is done: Both samples were produced in a similar manner to sample 2 of Example 2. Sample 1 was prepared from atomization of a 3% solution of fluticasone propionate in 20% dichloromethane in methanol (3 g in 100 ml) and Sample 5 was prepared from atomization of 3% solution in acetone (3 g in 100 ml). […] The FPF values were 11.80% and 13.80% on stage 5 for samples 5 and 1 respectively compared with 6.20% for micronized material.

Setting [4] is: Cyclohaler 90 Lpm, NGI stages 3-8.

Regarding `CCC(=O)O[C@]1(C(=O)SCF)[C@H](C)C[C@H]2[C@@H]3C[C@H](F)C4=CC(=O)C=C[C@]4(C)[C@@]3(F)[C@@H](O)C[C@@]21C` [Sample 2, Fluticasone propionate], in data set [1], the “% FPF under stressed storage conditions” value was “not significantly affected”; the “FPF of FP compared with micronized sample” value is recorded as “greater than the micronized sample”; the “FPF of FP compared with other samples” value was “greater than sample 4 and the micronized sample”.

With `CCC(=O)O[C@]1(C(=O)SCF)[C@H](C)C[C@H]2[C@@H]3C[C@H](F)C4=CC(=O)C=C[C@]4(C)[C@@]3(F)[C@@H](O)C[C@@]21C` [Sample 3, Fluticasone propionate], in data set [1], the “% FPF under stressed storage conditions” value is listed as “not significantly affected”; the “FPF of FP compared with micronized sample” value is “greater than the micronized sample”; the “FPF of FP compared with other samples” value was “greater than sample 4 and the micronized sample”. In data set [2] (Cyclohaler), the “fine particle fraction for SX” value is 44% and the “fine particle fraction for the engineered FP” value is on record as 15.8%. For the same molecule, in data set [2] (setting [4]), the “FPD for FP” value came out at 79 µg and the “FPD for SX” value came to 11 µg.

Regarding `CCC(=O)O[C@]1(C(=O)SCF)[C@H](C)C[C@H]2[C@@H]3C[C@H](F)C4=CC(=O)C=C[C@]4(C)[C@@]3(F)[C@@H](O)C[C@@]21C` [Sample 4, fluticasone propionate, reference compound], in data set [1], the “% FPF under stressed storage conditions” value is given as “not significantly affected”, the “FPF of FP compared with micronized sample” value is reported as “greater than the micronized sample” and the “FPF of FP compared with other samples” value is given as “poor performance”.

Take `CCC(=O)O[C@]1(C(=O)SCF)[C@H](C)C[C@H]2[C@@H]3C[C@H](F)C4=CC(=O)C=C[C@]4(C)[C@@]3(F)[C@@H](O)C[C@@]21C` [micronized FP, Fluticasone Propionate]: the “FPF on stage 5 of the NGI” value in data set [3] is recorded as 6.20%. The “% FPF under stressed storage conditions” value in data set [1] is “not significantly affected”.

Source of the values: patent US20110146678A1, “PROCESS FOR IMPROVING CRYSTALLINITY” (priority 2008, published 2011).
